Measurements reported in patent US6989396B2, “Tropane alkaloid multidrug resistance inhibitors from Erythroxylum pervillei and use of the same” (The Board of Trustees of the University of Illinois, priority 2001, dated 2006).
In brackets after ≈: the same amount, converted by molar mass. Like-named read-outs stand apart in the source and are kept apart here.

Legend:
[1] = tested on: SKVLB (ovarian adenocarcinoma, multidrug resistance); test: Multidrug resistance inhibition in SKVLB (pGp +ve); format: cell-based, human; conditions: Homo sapiens
KB-3 cells = test: Growth inhibitory potential (sulforhodamine B cell survival assay): KB-3; format: cell-based; conditions: Homo sapiens, KB3, 72 h, read-out: IC50 KB-3
Description: (§1) One part of a natural product drug discovery program involves monitoring the potential of plant extracts to reverse multiple drug resistance. […] To investigate the potential of plant extracts or compounds to reverse multidrug-resistance, KB-V1 cells are treated with different concentrations of plant extracts or compounds in the presence (1 μg/ml) or absence of vinblastine.
(§2) Cytotoxic potential. The cytotoxic potential of test substances with KB-3, KB-V1 and KB-8-5 cells was determined as described previously (24). Briefly, various concentrations of test compounds (dissolved in 10 μl of 10% DMSO) were transferred to 96-well plates, and 190 μl aliquots of cell suspensions (5×10^4 cells/ml) were added to each well. The plates then were incubated for 72 hours at 37° C. (100% humidity with a 5% CO2 atmosphere in air), and 100 μl of cold 20% aqueous trichloroacetic acid were added to the growth medium in each well to fix the cells. The cultures were incubated at 4° C. for 30 minutes, washed, air-dried, stained with sulforhodamine B solution, and washed with 1% acetic acid. Finally, 200 μl of 10 mM Tris base were added to each well and the optical densities were determined at 515 nm utilizing an ELISA plate reader. In each case, a zero-day control was performed by adding an equivalent number of cells to several wells and incubating at 37° C. for 30 minutes, and processing as described above. Optical density values obtained with the zero-day control were subtracted, and cell survival, relative to control (solvent-treated) cultures, was calculated. The cytotoxic potential of the compounds with CEM and CEM/VLB100 cells was determined as described by Beck et al. (30). Cells were grown in 24-well plates at a density of 5–6×10^5 cells/ml. At 48 hours, the cell number was determined using a Coulter Counter, with a channelizer to distinguish cells from debris.

[2] = tested on: LNCaP, hormone-dependent prostate cancer; test: In vitro cytotoxicity, human tumor panel: LNCaP; format: cell-based; conditions: Homo sapiens, LNCaP, read-out: ED50 LNCaP
Description: (§3) Cytotoxicity assay. Compounds 1–9 were evaluated for cytotoxic activity against a panel of human cancer cell lines, including KB-V1 in the presence and absence of VLB, according to an established protocol (68).

[3] = tested on: SKOV3 (ovarian adenocarcinoma); test: Cytotoxicity in ovarian adenocarcinoma SKOV3 (pGp -ve); format: cell-based; conditions: Homo sapiens, SK-OV-3, read-out: IC50 SKOV3 (pGp − ve)
Description: as §3

[4] = tested on: SW626, human ovarian adenocarcinoma; test: In vitro cytotoxicity, human tumor panel: SW626; format: cell-based; conditions: SW626, read-out: ED50 SW626
Description: as §3

HCT-15, colon = test: In vitro multidrug resistance modulation (DINIB synergy): HCT-15; format: cell-based, human; conditions: increase of cytotoxicity of DINIB 1 × 10^−4 M; modulator μg/mL: verapamil 12.5, cyclosporin A 6.3, pervilleine B 12.5, C 3.1, D 50.0, F 25.0; <25 insignificant, >100 strong synergy
Excerpt: (§4) Alkaloids 5–7 and 9 were further evaluated for their efficacy as potential modulators of P-glycoprotein. This assay assessed the ability of these test compounds to increase the cytotoxicity of an agent of the MDR phenotype {4,9-dihydro-3-iso-butyl-2-methyl-1-(p-nitrophenacyl)-4,9-dioxo-1H-naphth[2-3-d]imidazolium bromide (DINIB)}, compared with an agent not of the MDR phenotype (5-flurouracil), used as a negative control (73, 74).
(§5) In vitro multidrug resistance assay.

Col2, colon cancer = test: In vitro cytotoxicity, human tumor panel: Col2; format: cell-based; conditions: Homo sapiens, read-out: ED50 Col2
Description: as §3

Lu1, lung cancer = test: In vitro cytotoxicity, human tumor panel: Lu1; format: cell-based; conditions: Homo sapiens, read-out: ED50 Lu1
Description: as §3

BC1, breast cancer = test: In vitro cytotoxicity, human tumor panel: BC1; format: cell-based; conditions: Homo sapiens, read-out: ED50 BCI
Description: as §3

CAKI-1, renal = test: In vitro multidrug resistance modulation (DINIB synergy): CAKI-1; format: cell-based, human; conditions: increase of cytotoxicity of DINIB 1 × 10^−4 M; modulator μg/mL: verapamil 12.5, cyclosporin A 6.3, pervilleine B 12.5, C 3.1, D 50.0, F 25.0; <25 insignificant, >100 strong synergy
Excerpt: as §4, §5

KB-V1 cells [5] = test: Reversal of MDR, cell survival assay: KB-V1 with or without vinblastine; format: cell-based, human; conditions: for IC50: Homo sapiens, KB-V1, absence of vinblastine, 72 hours, read-out: IC50 KB-V1 (−); for Ratio of IC50 values [KB-V1 (−)]/[KB-V1 (+)]: vinblastine 1 μg/ml
Description: as §1
as §2, with “Finally, 200 μl of 10 mM Tris base were added to each well and the optical densities were determined at 515 nm utilizing an ELISA plate reader.” left out

KB-V1, drug resistant KB = test: In vitro cytotoxicity, human tumor panel: KB-V1 with or without vinblastine; format: cell-based; conditions: for IC50: Homo sapiens, KB-V1, drug-resistant KB assessed in the absence of vinblastine, read-out: ED50 KB-V1−; for ED50 KB-V1+: drug resistant KB assessed in presence of vinblastine (1 μg/mL)
Description: as §3

[6] = tested on: KB, oral epidermoid carcinoma; test: In vitro cytotoxicity, human tumor panel: KB; format: cell-based; conditions: Homo sapiens, read-out: ED50 KB
Description: as §3

UO-31, renal = test: In vitro multidrug resistance modulation (DINIB synergy): UO-31; format: cell-based, human; conditions: increase of cytotoxicity of DINIB 1 × 10^−4 M; modulator μg/mL: verapamil 12.5, cyclosporin A 6.3, pervilleine B 12.5, C 3.1, D 50.0, F 25.0; <25 insignificant, >100 strong synergy
Excerpt: as §4, §5

LOX IMVI, melanoma = test: In vitro multidrug resistance modulation (DINIB synergy): LOX IMVI; format: cell-based, human; conditions: increase of cytotoxicity of DINIB 1 × 10^−4 M; modulator μg/mL: verapamil 12.5, cyclosporin A 6.3, pervilleine B 12.5, C 3.1, D 50.0, F 25.0; <25 insignificant, >100 strong synergy
Excerpt: as §4, §5

KB-V1 cells [7] = test: In vivo hollow fiber test: KB-V1; set-up: species or system NCr nu/nu mice; conditions: for growth inhibition, administered as single agents: KB-V1 or KB-8-5 cells in hollow fibers implanted into NCr nu/nu mice; for Calculated inhibition (vinblastine + reversing agent as single agents), KB-V1, i.p. site / Calculated inhibition (vinblastine + reversing agent as single agents), KB-V1, s.c. site: summation of single-agent inhibitions; for Observed inhibition from coadministration with vinblastine, KB-V1, s.c. site / Observed inhibition from coadministration with vinblastine, KB-V1, i.p. site: vinblastine 250 μg/kg + reversing agent 0.136 mmol/kg; for Observed inhibition from coadministration with vinblastine, KB-V1, i.p. site / Growth inhibition, single agent, KB-V1, s.c. site: i.p. injection once daily days 3–6; for Growth inhibition, single agent, KB-V1, s.c. site: vinblastine 250 μg/kg, reversing agents 0.136 mmol/kg
Description: In vivo hollow fiber test. […] Confluent monolayers of KB-3, KB-V1 or KB-8-5 cells were harvested, collected by centrifugation and resuspended in conditioned medium at a concentration of 7.5×10^5 cells/ml.
Test compounds were administrated once daily by intraperitoneal injection from day 3–6 after implantation. Body weights were measure daily.
After incubating at 37° C. for 4 hours, the culture medium was aspirated and the samples were washed twice with normal saline containing 2.5% protamine sulfate solution by overnight incubation at 4° C. […] The formazan was extracted from each sample with DMSO (250 μl/well) for 4 hours at room temperature on a rotation platform.

[8] = read-out: IC50 BSKVLB (pGp + ve)
[9] = read-out: IC50 SKVLB (pGp + ve), addition of adriamycin

Row | Compound | IC50 [1, 8] [µM] | IC50 [1, 9] [µM] | IC50 (KB-3 cells) [µM] | IC50 [2] [µg/mL] | IC50 [3] [µM] | IC50 [4] [µg/mL] | synergy value at a 95% confidence level, HCT-15 (HCT-15, colon) | IC50 (Col2, colon cancer) [µg/mL] | IC50 (Lu1, lung cancer) [µg/mL] | IC50 (BC1, breast cancer) [µg/mL] | synergy value at a 95% confidence level, CAKI-1 (CAKI-1, renal) | IC50 (KB-V1 cells [5]) [µM] | Ratio of IC50 values [KB-V1 (−)]/[KB-V1 (+)] (KB-V1 cells [5]) | IC50 (KB-V1, drug resistant KB) [µg/mL] | ED50 KB-V1+ (KB-V1, drug resistant KB) [µg/mL] | IC50 [6] [µg/mL] | synergy value at a 95% confidence level, UO-31 (UO-31, renal) | synergy value at a 95% confidence level, LOX IMVI (LOX IMVI, melanoma) | growth inhibition, administered as single agents (KB-V1 cells [7]) | Calculated inhibition (vinblastine + reversing agent as single agents), KB-V1, i.p. site (KB-V1 cells [7]) [%] | further results
1 | COc1cc(C=CC(=O)O[C@H]2C[C@@H]3C[C@H](OC(=O)c4cc(OC)c(OC)c(OC)c4)C[C@H]2N3C)cc(OC)c1OC [Compound 5, 3α-(3,4,5-trimethoxybenzoyloxy)-6β-(3,4,5-trimethoxycinnamoyloxy)tropane] | > 10 | 0.12 | > 35 | 1 (≈ 1.75 µM) | 3.8 | 3.2 (≈ 5.6 µM) | 607.6 | 1.3 (≈ 2.27 µM) | 3.1 (≈ 5.42 µM) | 9.4 (≈ 16.4 µM) | 268.1 | 15 | 88 | 8.8 (≈ 15.4 µM) | 0.1 | > 20 | 248.7 | 33.3 | not significantly inhibited | 9.4 | Calculated inhibition (vinblastine + reversing agent as single agents), KB-V1, s.c. site (KB-V1 cells [7]): 3.8%; Observed inhibition from coadministration with vinblastine, KB-V1, s.c. site (KB-V1 cells [7]): 1.4 (P = 0.87) %; Observed inhibition from coadministration with vinblastine, KB-V1, i.p. site (KB-V1 cells [7]; listed as pervilleine B): 66.8 (P < 0.0001) %; Growth inhibition, single agent, KB-V1, s.c. site (KB-V1 cells [7]): 0%
2 | COc1cc(C=CC(=O)O[C@H]2C[C@H]3C[C@H](OC(=O)C=Cc4cc(OC)c(OC)c(OC)c4)[C@@H](C2)N3C)cc(OC)c1OC [Compound 6, 3α,6β-di-(3,4,5-trimethoxycinnamoyloxy)tropane] | > 10 | 0.08 | 3.7 | > 20 | 2.8 | 1.4 (≈ 2.34 µM) | 946.7 | 4.1 (≈ 6.86 µM) | 2.3 (≈ 3.85 µM) | 2.8 (≈ 4.68 µM) | 332.3 | 15 | 88 | 9 (≈ 15.1 µM) | 0.1 | 2.2 (≈ 3.68 µM) | 444.0 | 32.6 | not significantly inhibited | 15.9 | Calculated inhibition (vinblastine + reversing agent as single agents), KB-V1, s.c. site (KB-V1 cells [7]): 3.8%; Observed inhibition from coadministration with vinblastine, KB-V1, s.c. site (KB-V1 cells [7]): 0.2 (P = 0.96) %; Observed inhibition from coadministration with vinblastine, KB-V1, i.p. site (KB-V1 cells [7]; listed as pervilleine C): 77.7 (P < 0.0001) %; Growth inhibition, single agent, KB-V1, s.c. site (KB-V1 cells [7]): 0%
3 | COc1cc(C=CC(=O)O[C@@H]2C[C@@H]3[C@@H](OC(=O)C=Cc4cc(OC)c(OC)c(OC)c4)[C@@H](O)[C@H](C2)N3C)cc(OC)c1OC [Compound 7, 3α,6β-di-(3,4,5-trimethoxycinnamoyloxy)-7β-hydroxytropane] |  |  |  | 14.1 (≈ 23 µM) |  | 6.5 (≈ 10.6 µM) | 758.3 | 4.9 (≈ 7.98 µM) | 15.1 (≈ 24.6 µM) | 15 (≈ 24.4 µM) | 387.9 |  |  | 9 (≈ 14.7 µM) | 0.2 | 11 (≈ 17.9 µM) | 562.7 | 13.2 |  |  | melting point: 59 to 61 °C
4 | COc1cc(C=CC(=O)O[C@H]2C[C@@H]3C[C@H](OC(=O)Cc4ccccc4)C[C@H]2N3C)cc(OC)c1OC [Compound 9, 3α-phenylacetoxy-6β-(3,4,5-trimethoxycinnamoyloxy)-tropane] |  |  |  | > 20 |  | > 20 | 714.7 | 4.9 (≈ 9.89 µM) | > 20 | > 20 | 342.1 |  |  | > 20 | 0.2 | > 20 | 364.4 | 59.2 |  |  | melting point: 59 to 61 °C
5 | cyclosporin A [reference compound] |  |  |  |  |  |  | 719.1 |  |  |  | 273.3 |  |  |  |  |  | 642.1 | 72.9 |  |  | 
